Test results taken from the Kinase Knowledgebase extract (Sharma et al. 2016).

The compounds below were run against PIK3CG (human) (UniProt P48736) (assay: Inhibition of PIK3CG Kinase Activity).
Sequence of PIK3CG (human) (P48736 whole entry, looked up): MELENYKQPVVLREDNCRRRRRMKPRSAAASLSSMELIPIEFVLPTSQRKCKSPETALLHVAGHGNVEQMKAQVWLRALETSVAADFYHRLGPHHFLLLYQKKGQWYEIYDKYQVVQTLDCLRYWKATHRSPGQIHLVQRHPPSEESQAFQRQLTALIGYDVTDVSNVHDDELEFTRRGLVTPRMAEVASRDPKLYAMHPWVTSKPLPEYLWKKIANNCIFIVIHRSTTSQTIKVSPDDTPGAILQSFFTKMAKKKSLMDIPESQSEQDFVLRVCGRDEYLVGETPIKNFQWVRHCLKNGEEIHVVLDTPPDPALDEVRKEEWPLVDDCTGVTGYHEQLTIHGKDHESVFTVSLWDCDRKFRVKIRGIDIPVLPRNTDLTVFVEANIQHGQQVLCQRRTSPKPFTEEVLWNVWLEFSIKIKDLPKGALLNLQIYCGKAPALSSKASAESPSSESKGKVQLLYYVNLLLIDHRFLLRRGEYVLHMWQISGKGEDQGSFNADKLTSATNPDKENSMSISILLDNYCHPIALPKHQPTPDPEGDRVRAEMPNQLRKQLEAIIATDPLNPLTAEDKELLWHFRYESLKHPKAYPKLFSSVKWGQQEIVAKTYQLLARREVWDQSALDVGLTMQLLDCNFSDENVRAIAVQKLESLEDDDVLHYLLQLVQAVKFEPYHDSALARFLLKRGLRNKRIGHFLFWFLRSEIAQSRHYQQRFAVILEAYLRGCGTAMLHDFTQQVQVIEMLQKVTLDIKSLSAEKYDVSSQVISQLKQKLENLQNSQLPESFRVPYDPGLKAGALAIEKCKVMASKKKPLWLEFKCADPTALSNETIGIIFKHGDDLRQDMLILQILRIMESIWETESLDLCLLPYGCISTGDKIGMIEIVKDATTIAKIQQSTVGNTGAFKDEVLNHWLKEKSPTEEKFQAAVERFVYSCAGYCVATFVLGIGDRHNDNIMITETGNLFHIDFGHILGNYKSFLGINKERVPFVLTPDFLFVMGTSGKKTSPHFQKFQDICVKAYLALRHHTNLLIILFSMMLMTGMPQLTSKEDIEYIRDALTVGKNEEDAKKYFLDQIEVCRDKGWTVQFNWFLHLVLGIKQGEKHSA
With CNC(=O)Nc1nc2c(s1)-c1c(cnn1-c1cc(Cl)ccc1Cl)C2 the IC50 was less than 800 nM.
Compound Cn1cc(CNC(=O)Nc2nc3c(s2)-c2c(cnn2-c2ccccc2Cl)C3)cn1 has an IC50 of less than 800 nM.
Compound CCCCNC(=O)Nc1nc2c(s1)-c1c(cnn1-c1cccc(F)c1C(F)(F)F)C2 has an IC50 of less than 800 nM.
With CCc1cnc(CCNC(=O)Nc2nc3c(s2)-c2c(cnn2-c2ccccc2Cl)C3)o1 the IC50 was less than 800 nM.
With O=C(NCc1cc(C2CC2)n[nH]1)Nc1nc2c(s1)-c1c(cnn1-c1ccccc1C(F)(F)F)C2 the IC50 was less than 800 nM.
CCc1cc(=O)n(CCNC(=O)Nc2nc3c(s2)-c2c(cnn2-c2ccccc2C(F)(F)F)C3)[nH]1 gave an IC50 of less than 800 nM.
With Cc1cc(-c2cccnc2)nn1CCNC(=O)Nc1nc2c(s1)-c1c(cnn1-c1ccccc1C(F)(F)F)C2 the IC50 was less than 800 nM.
With Nc1cc(CCNC(=O)Nc2nc3c(s2)-c2c(cnn2-c2ccccc2C(F)(F)F)C3)nn1C1CCCC1 the IC50 was less than 800 nM.
With CC(C)(O)Cn1cnc(CCNC(=O)Nc2nc3c(s2)-c2c(cnn2-c2ccccc2C(F)(F)F)C3)c1 the IC50 was less than 800 nM.
CN(CCc1cn[nH]c1)C(=O)Nc1nc2c(s1)-c1c(cnn1-c1ccccc1C(F)(F)F)C2 showed an IC50 of less than 800 nM.
For CN1CCC(CNC(=O)Nc2nc3c(s2)-c2c(cnn2-c2ccccc2Cl)C3)CC1, the IC50 was less than 800 nM.
In the case of N#Cc1ccc(CNC(=O)Nc2nc3c(s2)-c2c(cnn2-c2ccccc2C(F)(F)F)C3)s1, the IC50 is reported as less than 800 nM.
COc1ccccc1C1CCN(C(=O)Nc2nc3c(s2)-c2c(cnn2-c2ccccc2Cl)C3)C1 (configuration not stated) gave an IC50 of less than 800 nM.
In the case of Cc1nn(C)cc1CNC(=O)Nc1nc2c(s1)-c1c(cnn1-c1ccccc1C(F)(F)F)C2, the IC50 is reported as less than 800 nM.
O=C(Nc1nc2c(s1)-c1c(cnn1-c1ccccc1Cl)C2)N1CCC(N2CCNC2=O)CC1 gave an IC50 of less than 800 nM.
CN(Cc1cccs1)C(=O)Nc1nc2c(s1)-c1c(cnn1-c1ccccc1C(F)(F)F)C2 was tested, and the IC50 was less than 800 nM.
CC(C)(C)OC(=O)N1CCC(CNC(=O)Nc2nc3c(s2)-c2c(cnn2-c2ccccc2Cl)C3)CC1 showed an IC50 of less than 800 nM.
O=C(NCCN1CCCC1)Nc1nc2c(s1)-c1c(cnn1-c1ccccc1Br)C2 gave an IC50 of less than 800 nM.
With O=C(NCC1CCC(N2CCNC2=O)CC1)Nc1nc2c(s1)-c1c(cnn1-c1ccccc1Cl)C2 (configuration not stated) the IC50 was less than 800 nM.
O=C(NCCc1cn[nH]c1)Nc1nc2c(s1)-c1c(cnn1-c1ccccc1C(F)(F)F)C2 was tested, and the IC50 was less than 800 nM.
Compound CC(C)c1noc(CCNC(=O)Nc2nc3c(s2)-c2c(cnn2-c2ccccc2Cl)C3)n1 has an IC50 of less than 800 nM.
Work on NC(=O)Nc1nc2c(s1)-c1c(cnn1-c1cc(Cl)ccc1Cl)C2 yielded an IC50 of less than 800 nM.
In the case of CC(C)(C)OC(=O)NCC1CCCN1C(=O)Nc1nc2c(s1)-c1c(cnn1-c1ccccc1Cl)C2 (configuration not stated), the IC50 is reported as less than 800 nM.
CCNC(=O)Nc1nc2c(s1)-c1c(cnn1-c1cccc(F)c1C(F)(F)F)C2 gave an IC50 of less than 800 nM.
Work on O=C(NCCO)Nc1nc2c(s1)-c1c(cnn1-c1ccccc1C(F)(F)F)C2 yielded an IC50 of less than 800 nM.
Work on CC1CC(c2ccc(O)cc2)CN1C(=O)Nc1nc2c(s1)-c1c(cnn1-c1ccccc1Cl)C2 (configuration not stated) yielded an IC50 of less than 800 nM.
For CC(C)(CNc1ccc(C(C)(C)C)cc1)NC(=O)Nc1nc2c(s1)-c1c(cnn1-c1ccccc1Cl)C2, the IC50 was less than 800 nM.
In the case of CCc1noc(CCNC(=O)Nc2nc3c(s2)-c2c(cnn2-c2ccccc2C(F)(F)F)C3)n1, the IC50 is reported as less than 800 nM.
With O=C(NCc1nnn[nH]1)Nc1nc2c(s1)-c1c(cnn1-c1ccccc1C(F)(F)F)C2 the IC50 was less than 800 nM.
For NC(=O)Nc1nc2c(s1)-c1c(cnn1-c1cccc(F)c1C(F)(F)F)C2, the IC50 was less than 800 nM.
CCc1noc(CCNC(=O)Nc2nc3c(s2)-c2c(cnn2-c2ccccc2Cl)C3)n1 was tested, and the IC50 was less than 800 nM.
O=C(NCc1nnn[nH]1)Nc1nc2c(s1)-c1c(cnn1-c1ccccc1Cl)C2 showed an IC50 of less than 800 nM.
Work on Cc1nn(C)cc1CNC(=O)Nc1nc2c(s1)-c1c(cnn1-c1ccccc1Cl)C2 yielded an IC50 of less than 800 nM.
Compound O=C(Nc1nc2c(s1)-c1c(cnn1-c1ccccc1Cl)C2)N1CCC2(CC1)C(=O)NCN2c1ccccc1 has an IC50 of less than 800 nM.
O=C(NCC1CCCN(c2ncccn2)C1)Nc1nc2c(s1)-c1c(cnn1-c1ccccc1Cl)C2 (configuration not stated) was tested, and the IC50 was less than 800 nM.
Work on O=C(NCc1ccccn1)Nc1nc2c(s1)-c1c(cnn1-c1ccccc1C(F)(F)F)C2 yielded an IC50 of less than 800 nM.
CCn1cnc(CCNC(=O)Nc2nc3c(s2)-c2c(cnn2-c2cccc(F)c2C(F)(F)F)C3)c1 gave an IC50 of less than 800 nM.
For O=C(C[C@H]1CCCN1C(=O)OCc1ccccc1)Nc1nc2c(s1)-c1c(cnn1-c1ccccc1Cl)C2, the IC50 was less than 800 nM.
For CCCNC(=O)Nc1nc2c(s1)-c1c(cnn1-c1ccccc1C(F)(F)F)C2, the IC50 was less than 800 nM.
For CC(C)Cn1nc(CCNC(=O)Nc2nc3c(s2)-c2c(cnn2-c2ccccc2C(F)(F)F)C3)cc1N, the IC50 was less than 800 nM.
For CC(C)(C)OC(=O)N1CCCCC1CNC(=O)Nc1nc2c(s1)-c1c(cnn1-c1ccccc1Cl)C2 (configuration not stated), the IC50 was less than 800 nM.
Compound CCn1cnc(CCNC(=O)Nc2nc3c(s2)-c2c(cnn2-c2ccccc2Cl)C3)c1 has an IC50 of less than 800 nM.
For O=C(NCC1CC1)Nc1nc2c(s1)-c1c(cnn1-c1cccc(F)c1C(F)(F)F)C2, the IC50 was less than 800 nM.
In the case of CCc1nnc(CCNC(=O)Nc2nc3c(s2)-c2c(cnn2-c2ccccc2Cl)C3)o1, the IC50 is reported as less than 800 nM.
In the case of CC(C)(C)OC(=O)N1CCC[C@@H]1CNC(=O)Nc1nc2c(s1)-c1c(cnn1-c1ccccc1C(F)(F)F)C2, the IC50 is reported as less than 800 nM.
CCc1nnc(CCNC(=O)Nc2nc3c(s2)-c2c(cnn2-c2ccccc2C(F)(F)F)C3)o1 was tested, and the IC50 was less than 800 nM.
With O=C(NCc1ccccc1)Nc1nc2c(s1)-c1c(cnn1-c1ccccc1Cl)C2 the IC50 was less than 800 nM.
With Nc1cc(CNC(=O)Nc2nc3c(s2)-c2c(cnn2-c2ccccc2C(F)(F)F)C3)nn1C1CCCC1 the IC50 was less than 800 nM.
O=C(NCC1CC1)Nc1nc2c(s1)-c1c(cnn1-c1ccccc1C(F)(F)F)C2 gave an IC50 of less than 800 nM.
With Nc1cc(CCNC(=O)Nc2nc3c(s2)-c2c(cnn2-c2ccccc2C(F)(F)F)C3)[nH]n1 the IC50 was less than 800 nM.
CCc1cnc(CCNC(=O)Nc2nc3c(s2)-c2c(cnn2-c2ccccc2C(F)(F)F)C3)o1 was tested, and the IC50 was less than 800 nM.
CCCn1cnc(CCNC(=O)Nc2nc3c(s2)-c2c(cnn2-c2ccccc2Cl)C3)c1 gave an IC50 of less than 800 nM.
Compound NC(=O)c1cccc(CNC(=O)Nc2nc3c(s2)-c2c(cnn2-c2ccccc2Cl)C3)c1 has an IC50 of less than 800 nM.
CNC(=O)Nc1nc2c(s1)-c1c(cnn1-c1ccccc1Br)C2 gave an IC50 of less than 800 nM.
For Cc1cc(-c2ccco2)n(CCNC(=O)Nc2nc3c(s2)-c2c(cnn2-c2ccccc2C(F)(F)F)C3)n1, the IC50 was less than 800 nM.
CCn1cc(CNC(=O)Nc2nc3c(s2)-c2c(cnn2-c2ccccc2C(F)(F)F)C3)cn1 showed an IC50 of less than 800 nM.
O=C(O)[C@H]1[C@H](c2ccccc2)CCN1C(=O)Nc1nc2c(s1)-c1c(cnn1-c1ccccc1Cl)C2 was tested, and the IC50 was less than 800 nM.
For O=C(NCc1ccsc1)Nc1nc2c(s1)-c1c(cnn1-c1ccccc1C(F)(F)F)C2, the IC50 was less than 800 nM.
O=C(NCc1cccc(C(=O)NC2CCCCC2)c1)Nc1nc2c(s1)-c1c(cnn1-c1ccccc1Cl)C2 was tested, and the IC50 was less than 800 nM.
Cc1cc(C)n(CCNC(=O)Nc2nc3c(s2)-c2c(cnn2-c2ccccc2C(F)(F)F)C3)n1 gave an IC50 of less than 800 nM.
Work on CCN1CCC[C@H]1CNC(=O)Nc1nc2c(s1)-c1c(cnn1-c1ccccc1Cl)C2 yielded an IC50 of less than 800 nM.
For CC(C)(C)OC(=O)N1CCC[C@@H]1CNC(=O)Nc1nc2c(s1)-c1c(cnn1-c1ccccc1Cl)C2, the IC50 was less than 800 nM.
CCCNC(=O)Nc1nc2c(s1)-c1c(cnn1-c1cc(Cl)ccc1Cl)C2 showed an IC50 of less than 800 nM.
O=C(NCc1cccnc1)Nc1nc2c(s1)-c1c(cnn1-c1ccccc1C(F)(F)F)C2 was tested, and the IC50 was less than 800 nM.
For CCCCNC(=O)Nc1nc2c(s1)-c1c(cnn1-c1ccccc1Cl)C2, the IC50 was less than 800 nM.
Cc1ccc(CN2CC(NC(=O)Nc3nc4c(s3)-c3c(cnn3-c3ccccc3Cl)C4)CC2=O)cc1 (configuration not stated) was tested, and the IC50 was less than 800 nM.
With Nc1nnc(CNC(=O)Nc2nc3c(s2)-c2c(cnn2-c2ccccc2C(F)(F)F)C3)[nH]1 the IC50 was less than 800 nM.
CC(NC(=O)Nc1nc2c(s1)-c1c(cnn1-c1ccccc1Cl)C2)c1cccc(NC(=O)OC(C)(C)C)c1 (configuration not stated) gave an IC50 of less than 800 nM.
CC(C)(C)OC(=O)N[C@H]1CC[C@H](CNC(=O)Nc2nc3c(s2)-c2c(cnn2-c2ccccc2Cl)C3)CC1 was tested, and the IC50 was less than 800 nM.
CCNC(=O)Nc1nc2c(s1)-c1c(cnn1-c1cc(Cl)ccc1Cl)C2 gave an IC50 of less than 800 nM.
CCn1cnc(CCNC(=O)Nc2nc3c(s2)-c2c(cnn2-c2cc(F)ccc2C(F)(F)F)C3)c1 showed an IC50 of less than 800 nM.
With CN(C)CCNC(=O)Nc1nc2c(s1)-c1c(cnn1-c1ccccc1C(F)(F)F)C2 the IC50 was less than 800 nM.
CC(C)(C)OC(=O)NCc1ccccc1NC(=O)Nc1nc2c(s1)-c1c(cnn1-c1ccccc1Cl)C2 gave an IC50 of less than 800 nM.
CCCNC(=O)Nc1nc2c(s1)-c1c(cnn1-c1cccc(F)c1C(F)(F)F)C2 was tested, and the IC50 was less than 800 nM.
Compound CC(C)Cn1cnc(CCNC(=O)Nc2nc3c(s2)-c2c(cnn2-c2ccccc2C(F)(F)F)C3)c1 has an IC50 of less than 800 nM.
In the case of CC(C)NC(=O)Nc1nc2c(s1)-c1c(cnn1-c1ccccc1C(F)(F)F)C2, the IC50 is reported as less than 800 nM.
N#CCCn1nc(CCNC(=O)Nc2nc3c(s2)-c2c(cnn2-c2ccccc2C(F)(F)F)C3)cc1N gave an IC50 of less than 800 nM.
Compound O=C(NCc1ccn[nH]1)Nc1nc2c(s1)-c1c(cnn1-c1ccccc1C(F)(F)F)C2 has an IC50 of less than 800 nM.
For CC(C)(C)OC(=O)N1CCCC(CNC(=O)Nc2nc3c(s2)-c2c(cnn2-c2ccccc2Cl)C3)C1 (configuration not stated), the IC50 was less than 800 nM.
CCCNC(=O)Nc1nc2c(s1)-c1c(cnn1-c1ccccc1Cl)C2 gave an IC50 of less than 800 nM.
Work on CCn1cnc(CCNC(=O)Nc2nc3c(s2)-c2c(cnn2-c2ccccc2Br)C3)c1 yielded an IC50 of less than 800 nM.
For Cn1cc(CCNC(=O)Nc2nc3c(s2)-c2c(cnn2-c2ccccc2C(F)(F)F)C3)cn1, the IC50 was less than 800 nM.
With CC(C)(C)OC(=O)CCNC(=O)Nc1nc2c(s1)-c1c(cnn1-c1ccccc1Br)C2 the IC50 was less than 800 nM.
With CC(=O)NC1CCN(C(=O)Nc2nc3c(s2)-c2c(cnn2-c2ccccc2Cl)C3)C1 (configuration not stated) the IC50 was less than 800 nM.
Compound CCc1cnc(CCNC(=O)Nc2nc3c(s2)-c2c(cnn2-c2cc(Cl)ccc2Cl)C3)o1 has an IC50 of less than 800 nM.
With O=C(NCc1ccoc1)Nc1nc2c(s1)-c1c(cnn1-c1ccccc1C(F)(F)F)C2 the IC50 was less than 800 nM.
With O=C(NCCc1cn[nH]c1)Nc1nc2c(s1)-c1c(cnn1-c1ccccc1Cl)C2 the IC50 was less than 800 nM.
Work on O=C1CCC(NC(=O)Nc2nc3c(s2)-c2c(cnn2-c2ccccc2Cl)C3)C(c2ccccc2)N1 (configuration not stated) yielded an IC50 of less than 800 nM.
O=C(NCc1ccc(CN2CCNC2=O)cc1)Nc1nc2c(s1)-c1c(cnn1-c1ccccc1Cl)C2 gave an IC50 of less than 800 nM.
CCc1csc(CCNC(=O)Nc2nc3c(s2)-c2c(cnn2-c2ccccc2C(F)(F)F)C3)n1 gave an IC50 of less than 800 nM.
In the case of O=C(NCc1ccccc1N1CCCCC1)Nc1nc2c(s1)-c1c(cnn1-c1ccccc1Cl)C2, the IC50 is reported as less than 800 nM.
O=C(NCc1cc(C2CC2)n[nH]1)Nc1nc2c(s1)-c1c(cnn1-c1cccc(F)c1C(F)(F)F)C2 was tested, and the IC50 was less than 800 nM.
